According to PubChem BioAssay AID330 (DTP/NCI, 2004):
Several values for one entry are separate records, joined by “and”; a condition that tells them apart may be missing. Equal values may be shown once. Inconclusive results and toxic doses are left out. Rule for the calls: active = survival T/C of 150% or more; inactive = T/C below 125% in these data.

System: P388 leukemia ip, CD2F1 mice, survival T/C
Test: NCI In Vivo Anticancer Drug Screen. Data for tumor model P388 Leukemia (intraperitoneal) in CD2F1 (CDF1) mice
Settings: endpoint: median survival time, higher = longer survival
In short: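 Mice carrying the transplanted tumor received test compound or vehicle. Survival was recorded in each group, and the value is the treated-group measurement divided by that of the vehicle-treated control group.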

[1] = dose: 12.5 mg/kg/injection, schedule: Q01DX009 (ip), vehicle: saline with Tween-80
[2] = dose: 25.0 mg/kg/injection, schedule: Q01DX009 (ip), vehicle: saline with Tween-80
[3] = dose: 50.0 mg/kg/injection, schedule: Q01DX009 (ip), vehicle: saline with Tween-80
[4] = dose: 100.0 mg/kg/injection, schedule: Q01DX009 (ip), vehicle: saline with Tween-80
[5] = dose: 100.0 mg/kg/injection, schedule: Q04DX003 (ip), vehicle: saline
[6] = dose: 200.0 mg/kg/injection, schedule: Q01DX009 (ip), vehicle: saline with Tween-80
[7] = dose: 200.0 mg/kg/injection, schedule: Q04DX003 (ip), vehicle: saline
[8] = dose: 60.0 mg/kg/injection, schedule: Q01DX005 (ip), vehicle: saline with Tween-80
[9] = dose: 120.0 mg/kg/injection, schedule: Q01DX005 (ip), vehicle: saline with Tween-80
[10] = dose: 240.0 mg/kg/injection, schedule: Q01DX005 (ip), vehicle: saline with Tween-80
[11] = dose: 50.0 mg/kg/injection, schedule: Q01DX005 (ip), vehicle: Klucel (hydroxypropylcellulose) (HPC)
[12] = dose: 15.0 mg/kg/injection, schedule: Q01DX005 (ip), vehicle: saline with Tween-80
[13] = dose: 30.0 mg/kg/injection, schedule: Q01DX005 (ip), vehicle: saline with Tween-80
[14] = dose: 60.0 mg/kg/injection, schedule: Q01DX005 (ip), vehicle: saline
[15] = dose: 120.0 mg/kg/injection, schedule: Q01DX005 (ip), vehicle: saline
[16] = dose: 50.0 mg/kg/injection, schedule: Q01DX005 (ip), vehicle: saline with Tween-80
[17] = dose: 100.0 mg/kg/injection, schedule: Q01DX005 (ip), vehicle: saline with Tween-80
[18] = dose: 200.0 mg/kg/injection, schedule: Q01DX005 (ip), vehicle: saline with Tween-80

Measured: T/C

CCOC(=O)C1(C(=O)OCC)COC(C)(C)OC1
inactive: [1] 105 % of control | [2] 101 % of control and 97 % of control | [3] 102 % of control and 106 % of control | [4] 106 % of control and 108 % of control | [5] 100 % of control | [6] 98 % of control and 103 % of control | [7] 101 % of control | dose: 400.0 mg/kg/injection, schedule: Q04DX003 (ip), vehicle: saline 100 % of control | dose: 600.0 mg/kg/injection, schedule: Q04DX003 (ip), vehicle: saline 101 % of control

Cc1[nH]nc2c(NCc3ccco3)ncnc12
inactive: dose: 25.0 mg/kg/injection, schedule: Q04DX003 (ip), vehicle: saline 98 % of control | dose: 50.0 mg/kg/injection, schedule: Q04DX003 (ip), vehicle: saline 104 % of control | [5] 101 % of control | [7] 95 % of control

O=C(O)C1CC(c2ccccc2)=NN1c1ccccc1 (stereo not given)
inactive: dose: 12.5 mg/kg/injection, schedule: Q01DX009 (ip), vehicle: water 99 % of control | dose: 25.0 mg/kg/injection, schedule: Q01DX009 (ip), vehicle: water 98 % of control | dose: 50.0 mg/kg/injection, schedule: Q01DX009 (ip), vehicle: water 103 % of control | dose: 88.0 mg/kg/injection, schedule: Q01DX009 (ip), vehicle: water 112 % of control and 120 % of control | dose: 100.0 mg/kg/injection, schedule: Q01DX009 (ip), vehicle: water 109 % of control | dose: 133.0 mg/kg/injection, schedule: Q01DX009 (ip), vehicle: water 119 % of control and 124 % of control | dose: 200.0 mg/kg/injection, schedule: Q01DX009 (ip), vehicle: water 123 % of control | dose: 300.0 mg/kg/injection, schedule: Q01DX009 (ip), vehicle: water 122 % of control

CCCCC[C@@H]1CC=CC(NC(=O)OCc2ccccc2)C1C=O (stereo not given in full)
inactive: [8] 100 % of control | [9] 103 % of control | [10] 105 % of control

NC1=NS(=O)(=O)Nc2nonc21
inactive: [3] 96 % of control | [4] 89 % of control | [6] 89 % of control

CCCSc1nc2c(N)nc(-c3ccccc3)nc2nc1N
inactive: [3] 108 % of control | [4] 105 % of control | [6] 105 % of control

Cc1cnc(C#N)c(C#N)n1
inactive: dose: 6.25 mg/kg/injection, schedule: Q01DX005 (ip), vehicle: Klucel (hydroxypropylcellulose) (HPC) 103 % of control | dose: 12.5 mg/kg/injection, schedule: Q01DX005 (ip), vehicle: Klucel (hydroxypropylcellulose) (HPC) 106 % of control | dose: 25.0 mg/kg/injection, schedule: Q01DX005 (ip), vehicle: Klucel (hydroxypropylcellulose) (HPC) 100 % of control | [11] 116 % of control

CC(=O)N1CC(O)(c2ccccc2)CSc2ccccc21 (stereo not given)
inactive: [11] 95 % of control | dose: 100.0 mg/kg/injection, schedule: Q01DX005 (ip), vehicle: Klucel (hydroxypropylcellulose) (HPC) 95 % of control | dose: 200.0 mg/kg/injection, schedule: Q01DX005 (ip), vehicle: Klucel (hydroxypropylcellulose) (HPC) 96 % of control

NS(=O)(=O)c1ccc(CN2C(=O)c3ccccc3C2=O)cc1
inactive: dose: 100.0 mg/kg/injection, schedule: Q04DX002 (ip), vehicle: saline with Tween-80 110 % of control

Cc1cc(C)c2c(Nc3ccc4c(c3)OCO4)c(C(=O)O)cnc2c1
inactive: dose: 60.0 mg/kg/injection, schedule: Q04DX002 (ip), vehicle: Klucel + Tween-80 95 % of control | dose: 120.0 mg/kg/injection, schedule: Q04DX002 (ip), vehicle: Klucel + Tween-80 92 % of control | dose: 240.0 mg/kg/injection, schedule: Q04DX002 (ip), vehicle: Klucel + Tween-80 101 % of control

Clc1nc[nH]c1Cl
inactive: [2] 109 % of control | [3] 100 % of control | [4] 98 % of control

O=S(=O)(F)c1cccc(Cl)c1C[P+](c1ccccc1)(c1ccccc1)c1ccccc1
inactive: [12] 112 % of control

CCOc1ccccc1NC1=C(Cl)C(=O)c2ccccc2C1=O
inactive: dose: 7.5 mg/kg/injection, schedule: Q01DX005 (ip), vehicle: saline with Tween-80 100 % of control | [12] 94 % of control | [13] 97 % of control | [8] 103 % of control

COc1ccc(C(=O)C2C(=O)C(=O)OC2C2OC(=O)C(=O)C2C(=O)c2ccc(OC)cc2)cc1 (stereo not given)
inactive: dose: 30.0 mg/kg/injection, schedule: Q01DX005 (ip), vehicle: saline 100 % of control | [14] 94 % of control and 95 % of control | [15] 93 % of control

Cc1ccc(S(=O)(=O)NC(CNC(N)=O)C(=O)O)cc1 (stereo not given)
inactive: dose: 12.5 mg/kg/injection, schedule: Q01DX009 (ip), vehicle: other 107 % of control | dose: 25.0 mg/kg/injection, schedule: Q01DX009 (ip), vehicle: other 101 % of control | dose: 50.0 mg/kg/injection, schedule: Q01DX009 (ip), vehicle: other 100 % of control | dose: 100.0 mg/kg/injection, schedule: Q01DX009 (ip), vehicle: other 97 % of control | dose: 200.0 mg/kg/injection, schedule: Q01DX009 (ip), vehicle: other 96 % of control

CCOC(=O)C(CC(C)/C=N\Nc1ccccc1)(NC(C)=O)C(=O)OCC (stereo not given)
inactive: dose: 100.0 mg/kg/injection, schedule: Q01DX001 (ip), vehicle: Klucel (hydroxypropylcellulose) (HPC) 95 % of control | dose: 200.0 mg/kg/injection, schedule: Q01DX001 (ip), vehicle: Klucel (hydroxypropylcellulose) (HPC) 93 % of control | dose: 400.0 mg/kg/injection, schedule: Q01DX001 (ip), vehicle: Klucel (hydroxypropylcellulose) (HPC) 99 % of control

CCN(SSN(CC)S(=O)(=O)c1ccc(C)cc1)S(=O)(=O)c1ccc(C)cc1
inactive: [16] 106 % of control | [17] 107 % of control | [18] 110 % of control

CN[C@H]1CC[C@]23C[C@]24CC[C@]2(C)[C@@H]([C@H](C)N(C)C)CC[C@@]2(C)[C@@H]4CC[C@H]3C1(C)C
inactive: dose: 3.12 mg/kg/injection, schedule: Q01DX009 (ip), vehicle: saline with Tween-80 112 % of control | dose: 6.25 mg/kg/injection, schedule: Q01DX009 (ip), vehicle: saline with Tween-80 100 % of control | [1] 102 % of control | [2] 102 % of control | [3] 118 % of control

O=C1OC(c2ccccc2)N(c2ccccc2)C(=O)C1Cc1ccccc1 (stereo not given)
inactive: dose: 60.0 mg/kg/injection, schedule: Q01DX005 (ip), vehicle: Klucel (hydroxypropylcellulose) (HPC) 103 % of control | dose: 120.0 mg/kg/injection, schedule: Q01DX005 (ip), vehicle: Klucel (hydroxypropylcellulose) (HPC) 98 % of control | dose: 240.0 mg/kg/injection, schedule: Q01DX005 (ip), vehicle: Klucel (hydroxypropylcellulose) (HPC) 110 % of control

C[N+]1(Cc2ccccc2)C2CCC1C(CCl)C(O)C2 (stereo not given)
inactive: dose: 3.12 mg/kg/injection, schedule: Q01DX009 (ip), vehicle: saline 111 % of control | dose: 6.25 mg/kg/injection, schedule: Q01DX009 (ip), vehicle: saline 115 % of control | dose: 12.5 mg/kg/injection, schedule: Q01DX009 (ip), vehicle: saline 101 % of control and 104 % of control

COCc1c(C)oc2c(C)c3oc(=O)cc(C)c3cc12
inactive: dose: 100.0 mg/kg/injection, schedule: Q05DX002 (ip), vehicle: saline with Tween-80 101 % of control | dose: 200.0 mg/kg/injection, schedule: Q05DX002 (ip), vehicle: saline with Tween-80 95 % of control | dose: 400.0 mg/kg/injection, schedule: Q05DX002 (ip), vehicle: saline with Tween-80 107 % of control

CN(C(=O)C(F)(F)F)[Si](C)(C)C
inactive: [16] 100 % of control | [17] 105 % of control | [18] 95 % of control

O=C(Nc1ccccc1)c1cc2ccccc2oc1=O
inactive: [13] 99 % of control | [8] 95 % of control | [9] 94 % of control | [10] 100 % of control

O=S(=O)(Nc1cc(C(F)(F)F)ccc1Cl)c1ccc(F)cc1
inactive: [8] 104 % of control | [9] 96 % of control | [10] 100 % of control

CN1N=C(c2ccccc2)N=P12N=C(c1ccccc1)NN2C (stereo not given)
inactive: [14] 94 % of control | [15] 102 % of control | dose: 240.0 mg/kg/injection, schedule: Q01DX005 (ip), vehicle: saline 103 % of control
